Article PMC9363195, “Preclinical Pharmacokinetics, Biodistribution, and Acute Toxicity Evaluation of Caerin 1.9 Peptide in Sprague Dawley Rats” (Evidence-based Complementary and Alternative Medicine : eCAM, 2022)
Peptide text beside a SMILES is read from it.

System: SD rats
Assay: Gross necropsy and weight of vital organs in acute toxicity study
Type: in vivo, Sprague Dawley rats
Details: for Adrenals, absolute weight / Body weight / Brain, absolute weight / Heart, absolute weight / Kidneys, absolute weight / Liver, absolute weight / Ovaries, absolute weight / Spleen, absolute weight / Thymus, absolute weight / Thyroid, absolute weight / Uterus, absolute weight / Epididymides, absolute weight / Testis, absolute weight: day 15, mean ± SD
Experimental: Forty SD rats (20 males and 20 females) were randomly divided into 4 groups (Figure 1). All rats were given F3 once on the day of the experiment.
Twelve SD rats (6 males, 6 females) were given a daily subcutaneous injection of F3 at a dose of 10.0 mg/kg for consecutive 14 days. The first day of administration was recorded as day 1.
For 14 days, the body weight was measured before F3 administration on the first day of the experiment and once a week thereafter, with additional measurements on the day before and on the day of the planned autopsy. Food intake was recorded once a week. The rats were anesthetized by inhalation of 70% CO2/30% O2 before dissection, and blood samples were taken for hematology and biochemical analysis. The collected tissue was weighed and preserved for pathological examination.
After blood was collected at the predetermined time points, all rats were euthanized and subjected to a comprehensive general autopsy, which included a thorough examination of the external surface of the body, all foramen, cranial cavity, external surface of the brain, chest, abdomen, pelvic cavity, viscera, cervix, and genitalia. The adrenal gland, brain (brain, cerebellum, and brain stem), epididymis, heart, kidney, liver, ovary, spleen, testis, thymus, thyroid gland, and uterus were carefully collected, weighed, and documented before being kept in 10% neutral formalin buffer (10% NBF).

[1] = female SD rats, s.c. 10.0 mg/kg daily x14 d, n=6
[2] = female SD rats, single s.c. 1.0 mg/kg, n=5
[3] = female SD rats, single s.c. 10.0 mg/kg, n=5
[4] = female SD rats, single s.c. 100.0 mg/kg, n=5
[5] = male SD rats, s.c. 10.0 mg/kg daily x14 d, n=6
[6] = male SD rats, single s.c. 1.0 mg/kg, n=5
[7] = male SD rats, single s.c. 10.0 mg/kg, n=5
[8] = male SD rats, single s.c. 100.0 mg/kg, n=5

CC[C@H](C)[C@H](NC(=O)[C@H](CO)NC(=O)CNC(=O)[C@H](CC(C)C)NC(=O)[C@@H](NC(=O)CNC(=O)[C@H](Cc1ccccc1)NC(=O)[C@H](CC(C)C)NC(=O)CN)C(C)C)C(=O)N[C@@H](C)C(=O)N[C@@H](CCCCN)C(=O)N[C@@H](Cc1c[nH]cn1)C(=O)N[C@H](C(=O)N[C@@H](CC(C)C)C(=O)N1CCC[C@H]1C(=O)N[C@@H](Cc1c[nH]cn1)C(=O)N[C@H](C(=O)N[C@H](C(=O)N1CCC[C@H]1C(=O)N[C@H](C(=O)N[C@H](C(=O)N[C@@H](C)C(=O)N[C@@H](CCC(=O)O)C(=O)N[C@@H](CCCCN)C(=O)N[C@@H](CC(C)C)C(N)=O)[C@@H](C)CC)C(C)C)C(C)C)C(C)C)C(C)C [F3, Caerin 1.9] (H-GLFGVLGSIAKHVLPHVVPVIAEKL-NH2)
gross necropsy findings (SD rats, s.c. 10.0 mg/kg daily x14 d, all rats): diffuse subcutaneous bleeding at the injection site | influence on absolute and relative organ weight (SD rats, single or repeated s.c. injections): no influence | gross necropsy findings (SD rats, single s.c. 100.0 mg/kg): skin scab and thickening at the administration site in all male rats and four female rats | Adrenals, absolute weight [1]: 0.0793 ± 0.0101 g | Body weight [1]: 233.55 ± 16.03 g | Brain, absolute weight [1]: 1.9517 ± 0.0244 g | Heart, absolute weight [1]: 1.1247 ± 0.1287 g | Kidneys, absolute weight [1]: 1.7017 ± 0.123 g | Liver, absolute weight [1]: 7.5278 ± 0.6229 g | Ovaries, absolute weight [1]: 0.093 ± 0.0151 g | Spleen, absolute weight [1]: 0.6908 ± 0.0750 g | Thymus, absolute weight [1]: 0.427 ± 0.0886 g | Thyroid, absolute weight [1]: 0.0242 ± 0.0053 g | Uterus, absolute weight [1]: 0.4797 ± 0.1336 g | Adrenals, absolute weight [2]: 0.0728 ± 0.0097 g | Body weight [2]: 238.86 ± 7.94 g | Brain, absolute weight [2]: 2.0504 ± 0.0552 g | Heart, absolute weight [2]: 1.1086 ± 0.1559 g | Kidneys, absolute weight [2]: 1.9364 ± 0.118 g | Liver, absolute weight [2]: 7.7464 ± 0.2893 g | Ovaries, absolute weight [2]: 0.1036 ± 0.0242 g | Spleen, absolute weight [2]: 0.57 ± 0.1214 g | Thymus, absolute weight [2]: 0.5216 ± 0.0746 g | Thyroid, absolute weight [2]: 0.0282 ± 0.0029 g | Uterus, absolute weight [2]: 0.6212 ± 0.0948 g | Adrenals, absolute weight [3]: 0.0758 ± 0.0114 g | Body weight [3]: 243.48 ± 10.53 g | Brain, absolute weight [3]: 2.0232 ± 0.044 g | Heart, absolute weight [3]: 0.999 ± 0.0943 g | Kidneys, absolute weight [3]: 1.8596 ± 0.1438 g | Liver, absolute weight [3]: 7.3692 ± 0.709 g | Ovaries, absolute weight [3]: 0.096 ± 0.0182 g | Spleen, absolute weight [3]: 0.5508 ± 0.0854 g | Thymus, absolute weight [3]: 0.535 ± 0.0762 g | Thyroid, absolute weight [3]: 0.0338 ± 0.005 g | Uterus, absolute weight [3]: 0.4664 ± 0.1167 g | Adrenals, absolute weight [4]: 0.076 ± 0.0116 g | Body weight [4]: 238.86 ± 9.44 g | Brain, absolute weight [4]: 1.9918 ± 0.0665 g | Heart, absolute weight [4]: 1.0914 ± 0.0821 g | Kidneys, absolute weight [4]: 1.924 ± 0.0685 g | Liver, absolute weight [4]: 7.8582 ± 0.5028 g | Ovaries, absolute weight [4]: 0.108 ± 0.0223 g | Spleen, absolute weight [4]: 0.545 ± 0.0571 g | Thymus, absolute weight [4]: 0.478 ± 0.0725 g | Thyroid, absolute weight [4]: 0.0344 ± 0.0057 g | Uterus, absolute weight [4]: 0.5842 ± 0.0922 g | Adrenals, absolute weight [5]: 0.0612 ± 0.0041 g | Body weight [5]: 342.57 ± 13.86 g | Brain, absolute weight [5]: 2.062 ± 0.1162 g | Epididymides, absolute weight [5]: 1.0408 ± 0.0584 g | Heart, absolute weight [5]: 1.5727 ± 0.082 g | Kidneys, absolute weight [5]: 2.5043 ± 0.0600 g | Liver, absolute weight [5]: 9.9218 ± 0.6297 g | Spleen, absolute weight [5]: 0.741 ± 0.1802 g | Testis, absolute weight [5]: 3.3857 ± 0.1596 g | Thymus, absolute weight [5]: 0.4433 ± 0.0724 g | Thyroid, absolute weight [5]: 0.0358 ± 0.0092 g | Adrenals, absolute weight [6]: 0.0564 ± 0.0078 g | Body weight [6]: 380.74 ± 8.63 g | Brain, absolute weight [6]: 2.163 ± 0.0999 g | Epididymides, absolute weight [6]: 0.9464 ± 0.0677 g | Heart, absolute weight [6]: 1.485 ± 0.1408 g | Kidneys, absolute weight [6]: 2.8174 ± 0.3469 g | Liver, absolute weight [6]: 11.4326 ± 0.5122 g | Spleen, absolute weight [6]: 0.7378 ± 0.14 g | Testis, absolute weight [6]: 3.328 ± 0.2025 g | Thymus, absolute weight [6]: 0.545 ± 0.1054 g | Thyroid, absolute weight [6]: 0.0494 ± 0.0051 g | Adrenals, absolute weight [7]: 0.0654 ± 0.0073 g | Body weight [7]: 397.34 ± 21.46 g | Brain, absolute weight [7]: 2.181 ± 0.1198 g | Epididymides, absolute weight [7]: 0.9564 ± 0.0348 g | Heart, absolute weight [7]: 1.728 ± 0.2013 g | Kidneys, absolute weight [7]: 3.151 ± 0.1131 g | Liver, absolute weight [7]: 12.5468 ± 0.8106 g | Spleen, absolute weight [7]: 0.8204 ± 0.1012 g | Testis, absolute weight [7]: 3.2666 ± 0.0813 g | Thymus, absolute weight [7]: 0.6256 ± 0.1022 g | Thyroid, absolute weight [7]: 0.0498 ± 0.0093 g | Adrenals, absolute weight [8]: 0.066 ± 0.0075 g | Body weight [8]: 394.58 ± 14.44 g | Brain, absolute weight [8]: 2.1528 ± 0.0816 g | Epididymides, absolute weight [8]: 0.9956 ± 0.0459 g | Heart, absolute weight [8]: 1.6352 ± 0.0401 g | Kidneys, absolute weight [8]: 2.9858 ± 0.1294 g | Liver, absolute weight [8]: 12.2242 ± 0.7073 g | Spleen, absolute weight [8]: 0.793 ± 0.109 g | Testis, absolute weight [8]: 3.4182 ± 0.3029 g | Thymus, absolute weight [8]: 0.6608 ± 0.082 g | Thyroid, absolute weight [8]: 0.0482 ± 0.0075 g
